Assay results: patent publication US6095147A, “Method for photo-altering a biological system to improve biological effect” (The Regents of the University of California, priority 1994, dated 2000)

Experiments:
[1] = Noninvasive laser fluorescence (HeCd) measurement of SnET2 uptake and distribution in ocular tissues after subconjunctival injection; assay type: in vivo, rabbit; settings: for Axis Fluorescence Ratio (670 nm/570 nm) / Conjunctiva Fluorescence Ratio (670 nm/570 nm) / Iris Fluorescence Ratio (670 nm/570 nm) / Ratio of Fluorescence (Conjuctiva/Axis) / Ratio of Fluorescence (Conjuctiva/Iris): 3 hr
Procedure: (§1) Pharmacokinetics of the photosensitive agent or tin ethyl-etiopurpurin (SnET2) were studied after subconjunctival injections (0,25,50,75 ug; 11 rabbits). Noninvasive measurements were made at 0, 0.5, 1, 2, 3 and 4 hr postinjection using a HeCd based laser fluorescence diagnostic system (excitation-442 nm; detection-670 nm SnET2 fluorescence; tissue autofluorescense-570 nm). SnET2 uptake was determined by an elevated 670/570 nm ratio. Preoperative injections (0, 25, 50 and 75 ug; 8 rabbits) of SnET2 were given and posterior lip sclerectomies were performed after 3-4 hrs followed by post operative laser irradiation (665 nm; 100 mW/cm^2; 30 J/cm^2). […] Self absorption of the fluorescence was present in the higher doses for the conjunctiva. Fluorescence ratios (T=3 hr) were as follows. The fluorescence ratios are shown below in Table 2. The tissue ratios were: conjunctiva/iris: 0 (control)=1.2; 25 ug=63+/-17; 50 ug=54+/-31; 75 ug=4+/-1.2. Conjunctiva/optical axis: 0 (control)=1.4; 25 ug=109+/-37; 50 ug=78+/-10; 75 ug=11+/-2.5.
Noninvasive fluorescent measurements, using a HeCd laser, was made of the SnET2 to determine its uptake and distribution. Exposure of SnET2 with a HeCd laser, excites the tissue at 442 nanometers and detects 670 nanometer florescence for SnET2 and 570 nanometer for tissue autofluorescence. The higher the ratio (670 nm/570 nm), the higher the uptake. Measurements in the conjunctiva compared to the iris and of the conjunctiva as compared to the axis of the eye, namely the pupil, were compared three hours after injection. […] In this case the self-absorption of the 670 nm fluorescence by the SnET2 at such a high local concentration causes the intensity to actually decrease. […] This is also due to self-absorption. Note that for the iris and axis readings the signal does continue to increase with increasing injected dose due to the greater leakage into these areas of the eye with the higher injected doses. This is a negative, unwanted effect and is why the ratios of the conjuntiva/iris and conjuntiva/axis ratios decrease in Table 3. […] The decreased tissue ratios at the higher photosensitizer injection doses indicate lower specificity due to greater leakage from the injection site.

conjunctiva = experiment: Posterior lip sclerectomy (filtration surgery) with preoperative SnET2 injection and postoperative laser irradiation; assay type: in vivo, rabbit; settings: 665 nm, 100 mW/cm^2
Procedure: as §1
Some of the animals of the group shown in Table 2 and 3 were treated with 665 nanometers laser light at 100 milliwatt per square centimeter (30 Joules per square centimeter) exposure with 8 millimeter diameter spot three to four hours after the injection of the SnET2 following filtering surgery in the eye.

[2] = 25 μg subconjunctival, 3 animals
[3] = 50 μg subconjunctival, 3 animals
[4] = 75 μg subconjunctival, 5 animals

- Axis Fluorescence Ratio (670 nm/570 nm) [1, 2]: 0.26 +/- 0.03
- Conjunctiva Fluorescence Ratio (670 nm/570 nm) [1, 2]: 28.27 +/- 10.90
- Iris Fluorescence Ratio (670 nm/570 nm) [1, 2]: 0.44 +/- 0.08
- Ratio of Fluorescence (Conjuctiva/Axis) [1, 2]: 109+/-37
- Ratio of Fluorescence (Conjuctiva/Iris) [1, 2]: 63+/-17
- Axis Fluorescence Ratio (670 nm/570 nm) [1, 3]: 0.37 +/- 0.05
- Conjunctiva Fluorescence Ratio (670 nm/570 nm) [1, 3]: 31.70 +/- 8.60
- Iris Fluorescence Ratio (670 nm/570 nm) [1, 3]: 0.65 +/- 0.21
- Ratio of Fluorescence (Conjuctiva/Axis) [1, 3]: 78+/-10
- Ratio of Fluorescence (Conjuctiva/Iris) [1, 3]: 54+/-31
- Axis Fluorescence Ratio (670 nm/570 nm) [1, 4]: 1.30 +/- 0.90
- Iris Fluorescence Ratio (670 nm/570 nm) [1, 4]: 4.72 +/- 4.94
- Ratio of Fluorescence (Conjuctiva/Axis) [1, 4]: 11 +/- 2.5
- Ratio of Fluorescence (Conjuctiva/Iris) [1, 4]: 4 +/- 1.2
- Conjunctiva Fluorescence Ratio (670 nm/570 nm) ([1]; 75 μg subconjunctival, 5 animals, self-absorption of fluorescence): 15.14 +/- 13.60
- levels in the iris and optical axis ([1]; subconjunctival injection): small, but detectable levels
- time of peak conjunctival fluorescence post injection ([1]; subconjunctival injection): 3 h
Structure (SMILES): CCOC(=O)C1=Cc2c3nc(cc4nc(cc5[n-]c(cc6[n-]c2c(C)c6CC)c(C)c5CC)C(C)=C4CC)[C@@H](C)[C@]13CC.[Cl-].[Cl-].[Sn] (racemic) [SnET2, tin ethyl-etiopurpurin]
- uptake and retention at the injection site (conjunctiva) ([1]; subconjunctival injection): preferentially taken up and preferentially remains in the area of the injection, namely the conjunctiva
- overall effect of photodynamic therapy on conjunctiva (conjunctiva; 30 J/cm^2): titratable, localized, transient, post operative avascular conjunctiva
- avascular conjunctiva, post operative (conjunctiva; SnET2 25, 50, 75 ug, 30 J/cm^2, 3-4 hrs after injection): large transient areas of avascular conjunctiva were produced
- limitation of avascular areas to filtering blebs (conjunctiva; at 4 weeks, 30 J/cm^2): limitation of avascular areas to filtering blebs at 4 weeks
